Legend:
astrocytes = assay: Oxygen consumption rates (mitochondrial respiration) in astrocytes; type: cell-based
Description: Oxygen consumption rates (OCR) and maximal consumption rates are shown for indicated S3QEL2 concentrations and time points. Antimycin and rotenone were used as positive controls to inhibit mitochondrial respiration. ***p<0.001 vs. vehicle, two-way repeated measures ANOVA with Dunnett's multiple comparisons test.

primary astrocytes = assay: Intracellular ATP levels in primary astrocytes; type: cell-based
Description: Antimycin A and myxothiazol were used as positive controls to inhibit mitochondrial respiration and ATP production. n=3 wells per condition. ***p<0.001 vs. vehicle, mixed-effects model with Dunnett's multiple comparisons test.

Molecule | Mitochondrial respiration (oxygen consumption rates, OCR) (astrocytes) | Intracellular ATP levels (primary astrocytes)
antimycin A | greatly reduce | greatly reduce
C=C(C)[C@H]1Cc2c(ccc3c2O[C@@H]2COc4cc(OC)c(OC)cc4[C@@H]2C3=O)O1 [rotenone] | greatly reduce | 
CO/C(=C/C(N)=O)[C@H](C)[C@H](/C=C/c1csc(-c2csc([C@@H](C)/C=C/C=C/C(C)C)n2)n1)OC [myxothiazol] |  | greatly reduce
